Read-outs that look alike come from different tables or passages of the source. Each block holds one compound with its values, some of them ahead of it.
Tests used:
ENPP-1 ECD [1] = target: T1, ENPP-1 ECD (Homo sapiens (Human), UniProt P22413); experiment: Assay 1: inhibition of ENPP1 hydrolysis of 2′,3′-cGAMP (AMP-Glo, […] enzyme)
Description: Assay 1: Test compounds were plated in a 3× dilution scheme in a 384 well plate. […] AMP Detection solution (100 μL) was added to each well, the plate centrifuged and incubated for 60 min.

ENPP-1 ECD [2] = target: T1, ENPP-1 ECD; experiment: Assay 2: inhibition of ENPP1 hydrolysis of 2′,3′-cGAMP (AMP-Glo, […] enzyme)
Description: Assay 2: Compared to the conditions in Assay 1, this assay has a larger dynamic range and ensures the system is under steady-state conditions by reducing the enzyme concentration in the assay.
Test compounds were plated in a 3× dilution scheme in a 384 well plate. […] AMP Detection solution (10 μL) was added to each well, the plate centrifuged and incubated for 60 min.

[3] = Assay 1 (IC50), inhibition of ENPP1 hydrolysis of 2′,3′-cGAMP, no unit in Table 18 (Table 17 legend for this assay uses nM)
[4] = read-out: Assay 1 (IC50), ENPP1 hydrolysis of 2′,3′-cGAMP, AMP-Glo
[5] = Assay 2 (KI), ENPP1 hydrolysis of 2′,3′-cGAMP, AMP-Glo, […] ENPP-1, 24 μM cGAMP
[6] = Assay 2 (KI), inhibition of ENPP1 hydrolysis of 2′,3′-cGAMP, no unit in Table 18 (Table 17 legend for this assay uses nM)
[7] = Assay 1 (IC50), ENPP1 hydrolysis of 2′,3′-cGAMP, AMP-Glo
[8] = read-out: Assay 1 (IC50), inhibition of ENPP1 hydrolysis of 2′,3′-cGAMP, no unit in Table 18 (Table 17 legend for this assay uses nM)
[9] = read-out: Assay 2 (KI), ENPP1 hydrolysis of 2′,3′-cGAMP, AMP-Glo, […] ENPP-1, 24 μM cGAMP
[10] = read-out: Assay 2 (KI), inhibition of ENPP1 hydrolysis of 2′,3′-cGAMP, no unit in Table 18 (Table 17 legend for this assay uses nM)

T1 sequence (P22413 98-925): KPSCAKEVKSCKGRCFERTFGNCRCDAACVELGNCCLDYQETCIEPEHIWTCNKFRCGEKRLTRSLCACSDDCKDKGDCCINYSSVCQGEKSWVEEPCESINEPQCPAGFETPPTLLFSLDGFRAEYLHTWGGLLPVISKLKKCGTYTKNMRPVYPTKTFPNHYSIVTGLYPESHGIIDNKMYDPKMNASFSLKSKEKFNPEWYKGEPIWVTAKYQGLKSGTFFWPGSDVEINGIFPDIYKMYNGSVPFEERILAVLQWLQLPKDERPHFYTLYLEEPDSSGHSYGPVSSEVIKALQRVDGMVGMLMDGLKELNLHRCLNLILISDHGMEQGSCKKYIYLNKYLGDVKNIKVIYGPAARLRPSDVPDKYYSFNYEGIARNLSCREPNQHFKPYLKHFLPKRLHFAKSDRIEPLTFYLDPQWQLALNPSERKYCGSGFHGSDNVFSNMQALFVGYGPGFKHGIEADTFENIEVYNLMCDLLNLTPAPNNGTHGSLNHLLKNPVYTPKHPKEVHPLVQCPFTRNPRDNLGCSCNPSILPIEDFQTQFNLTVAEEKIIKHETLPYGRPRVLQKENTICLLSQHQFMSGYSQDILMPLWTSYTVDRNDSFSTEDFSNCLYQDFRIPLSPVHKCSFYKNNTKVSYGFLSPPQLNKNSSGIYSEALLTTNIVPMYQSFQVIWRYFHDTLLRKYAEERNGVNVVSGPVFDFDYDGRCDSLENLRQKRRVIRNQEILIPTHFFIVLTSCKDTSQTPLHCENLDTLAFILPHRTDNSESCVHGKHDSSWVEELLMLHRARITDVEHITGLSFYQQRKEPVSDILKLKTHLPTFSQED

IC50 (ENPP-1 ECD [1]; [3]): 3200 nM
IC50 (ENPP-1 ECD [1]; [4]): > 1000 nM
Ki (ENPP-1 ECD [2]; [5]): > 300 nM
Ki (ENPP-1 ECD [2]; [6]): 330 nM
SMILES: COc1cc2nccc(Oc3ccc([S@](C)(=N)=O)cc3)c2cc1OC [Compound 1R, (R)-(4-((6,7-dimethoxyquinolin-4-yl)oxy)phenyl)(imino)(methyl)-λ^6-sulfanone]

IC50 (ENPP-1 ECD [1]; [4]): > 1000 nM
IC50 (ENPP-1 ECD [1]; [8]): 1900 nM
Ki (ENPP-1 ECD [2]; [9]): > 300 nM
Ki (ENPP-1 ECD [2]; [10]): 350 nM
SMILES: COc1cc2ncc(C#N)c(Oc3ccc([S@](C)(=N)=O)cc3)c2cc1F [Compound 44b]

IC50 (ENPP-1 ECD [1]; [4]): 10 to 1000 nM
IC50 (ENPP-1 ECD [1]; [8]): 45 nM
Ki (ENPP-1 ECD [2]; [9]): 3 to 300 nM
Ki (ENPP-1 ECD [2]; [10]): 7.3 nM
SMILES: COc1ccc2c(N3CCC4(CC3)CCN([S@@](C)(=N)=O)C4)ccnc2c1 [Compound 55b]

IC50 (ENPP-1 ECD [1]; [4]): 10 to 1000 nM
IC50 (ENPP-1 ECD [1]; [8]): 520 nM
Ki (ENPP-1 ECD [2]; [9]): 3 to 300 nM
Ki (ENPP-1 ECD [2]; [10]): 93 nM
SMILES: COc1ccc2c(Oc3ccc([S@](=N)(=O)C4CC4)cc3)ccnc2c1 [Compound 60b]

Ki (ENPP-1 ECD [2]; [10]): 1.5 nM
SMILES: COc1cc2nccc(N3CCC4(CC3)CCN([S@](=N)(=O)C3CC3)C4)c2cc1F [Compound 218b]

Ki (ENPP-1 ECD [2]; [10]): 2 nM
SMILES: COc1cc2nncc(N3CCC4(CC3)CCN([S@@](C)(=N)=O)C4)c2cc1Cl [Compound 219b]

Ki (ENPP-1 ECD [2]; [10]): 1.3 nM
SMILES: COc1cccc2c(N3CC4(CCN([S@](C)(=N)=O)C4)C3)c(C#N)cnc12 [Compound 222b]

Ki (ENPP-1 ECD [2]; [10]): 39 nM
SMILES: COc1cc2nccc(OC[C@@H]3CCN([S@@](C)(=N)=O)C3)c2cc1F [Compound 229a]

Ki (ENPP-1 ECD [2]; [10]): 11 nM
SMILES: COc1cc2nccc(OC[C@H]3CCN([S@](C)(=N)=O)C3)c2cc1F [Compound 230a]

Ki (ENPP-1 ECD [2]; [10]): 2.4 nM
SMILES: COc1cc2ncnc(N3CC4(CC(C[S@@](C)(=N)=O)C4)C3)c2cc1OC [Compound 237a]

Ki (ENPP-1 ECD [2]; [10]): 13 nM
SMILES: COc1cccc2c(N3CC[C@H](C[S@](C)(=N)=O)C3)ncnc12 [Compound 238b]

Ki (ENPP-1 ECD [2]; [10]): 83 nM
SMILES: COc1cccc2c(N3CC[C@@H](C[S@@](C)(=N)=O)C3)ncnc12 [Compound 239b]

The next lines start with the compound.

SMILES: COc1ccc2c(C(=O)N3CCS(=N)(=O)CC3)ccnc2c1 [Compound 6, 1-imino-4-(7-methoxyquinoline-4-carbonyl)-1λ^6-thiomorpholin-1-one]
IC50 (ENPP-1 ECD [1]; [3]): > 30000 nM
IC50 (ENPP-1 ECD [1]; [4]): > 1000 nM

SMILES: COc1ccc2c(Oc3ccc(S(C)(=N)=O)c(F)c3)ccnc2c1 (centres unmarked) [Compound 10, (2-fluoro-4-((7-methoxyquinolin-4-yl)oxy)phenyl)(imino)(methyl)-λ^6-sulfanone]
IC50 (ENPP-1 ECD [1]; [7]): 10 to 1000 nM
IC50 (ENPP-1 ECD [1]; [3]): 23 nM
Ki (ENPP-1 ECD [2]; [5]): < 3 nM
Ki (ENPP-1 ECD [2]; [6]): 2.8 nM

SMILES: COc1cc2ncnc(OCc3ccc(S(C)(=N)=O)cc3)c2cc1OC (centres unmarked) [Compound 14, (4-(((6,7-dimethoxyquinazolin-4-yl)oxy)methyl)phenyl)(imino)(methyl)-λ^6-sulfanone]
IC50 (ENPP-1 ECD [1]; [7]): 10 to 1000 nM
IC50 (ENPP-1 ECD [1]; [3]): 110 nM
Ki (ENPP-1 ECD [2]; [5]): 3 to 300 nM
Ki (ENPP-1 ECD [2]; [6]): 15 nM

SMILES: COc1cc2ncnc(Oc3ccc(S(C)(=N)=O)cc3)c2cc1OC (centres unmarked) [Compound 18, (4-((6,7-dimethoxyquinazolin-4-yl)oxy)phenyl)(imino)(methyl)-λ^6-sulfanone]
IC50 (ENPP-1 ECD [1]; [7]): 10 to 1000 nM
IC50 (ENPP-1 ECD [1]; [3]): 180 nM
Ki (ENPP-1 ECD [2]; [5]): 3 to 300 nM
Ki (ENPP-1 ECD [2]; [6]): 24 nM

SMILES: CS(=N)(=O)c1ccc(Oc2cnnc3ccccc23)cc1 (centres unmarked) [Compound 22, (4-(cinnolin-4-yloxy)phenyl)(imino)(methyl)-λ^6-sulfanone]
IC50 (ENPP-1 ECD [1]; [3]): 1200 nM
IC50 (ENPP-1 ECD [1]; [4]): > 1000 nM
Ki (ENPP-1 ECD [2]; [5]): > 300 nM
Ki (ENPP-1 ECD [2]; [6]): 310 nM

SMILES: COc1ccc2c(CC(=O)N3CCS(=N)(=O)CC3)ccnc2c1 [Compound 26, 1-imino-4-[2-(7-methoxyquinolin-4-yl)acetyl]-1λ^6-thiomorpholin-1-one]
IC50 (ENPP-1 ECD [1]; [3]): 8800 nM
IC50 (ENPP-1 ECD [1]; [4]): > 1000 nM

SMILES: COc1ccc2ncc(C#N)c(Oc3ccc(S(C)(=N)=O)cc3)c2c1 (centres unmarked) [Compound 47, 6-methoxy-4-(4-(S-methylsulfonimidoyl)phenoxy)quinoline-3-carbonitrile]
IC50 (ENPP-1 ECD [1]; [7]): 10 to 1000 nM
IC50 (ENPP-1 ECD [1]; [3]): 180 nM

SMILES: Cc1ccc2ncc(C#N)c(Oc3ccc(S(C)(=N)=O)cc3)c2c1 (centres unmarked) [Compound 50, 6-methyl-4-(4-(S-methylsulfonimidoyl)phenoxy)quinoline-3-carbonitrile]
IC50 (ENPP-1 ECD [1]; [3]): 2600 nM
IC50 (ENPP-1 ECD [1]; [4]): > 1000 nM

SMILES: COc1cccc2c(Oc3ccc(S(C)(=N)=O)cc3)c(C#N)cnc12 (centres unmarked) [Compound 58, 8-methoxy-4-(4-(S-methylsulfonimidoyl)phenoxy)quinoline-3-carbonitrile]
IC50 (ENPP-1 ECD [1]; [7]): 10 to 1000 nM
IC50 (ENPP-1 ECD [1]; [3]): 51 nM

SMILES: COc1ccc2c(N3CCC(CCS(C)(=N)=O)CC3)ccnc2c1 (centres unmarked) [Compound 69, imino(2-(1-(7-methoxyquinolin-4-yl)piperidin-4-yl)ethyl)(methyl)-λ^6-sulfanone]
IC50 (ENPP-1 ECD [1]; [7]): 10 to 1000 nM
IC50 (ENPP-1 ECD [1]; [3]): 55 nM
Ki (ENPP-1 ECD [2]; [5]): 3 to 300 nM
Ki (ENPP-1 ECD [2]; [6]): 10 nM

SMILES: COc1cnc2c(Oc3ccc(S(C)(=N)=O)cc3)ccnc2c1 (centres unmarked) [Compound 76, imino(4-((7-methoxy-1,5-naphthyridin-4-yl)oxy)phenyl)(methyl)-λ^6-sulfanone]
IC50 (ENPP-1 ECD [1]; [3]): 23000 nM
IC50 (ENPP-1 ECD [1]; [4]): > 1000 nM

SMILES: COc1cc2nccc(Oc3ccc(S(C)(=N)=O)cc3)c2cn1 (centres unmarked) [Compound 77, imino(4-((7-methoxy-1,6-naphthyridin-4-yl)oxy)phenyl)(methyl)-λ^6-sulfanone]
IC50 (ENPP-1 ECD [1]; [7]): 10 to 1000 nM
IC50 (ENPP-1 ECD [1]; [3]): 57 nM

SMILES: COc1ccc2c(-c3ccc(CS(C)(=N)=O)cc3)ccnc2c1 (centres unmarked) [Compound 88, imino(4-(7-methoxyquinolin-4-yl)benzyl)(methyl)-λ^6-sulfanone]
IC50 (ENPP-1 ECD [1]; [7]): 10 to 1000 nM
IC50 (ENPP-1 ECD [1]; [3]): 920 nM

SMILES: COc1ccc2c(Oc3ccc(S(C)(=N)=O)cc3)ccnc2c1F (centres unmarked) [Compound 128, {4-[(8-fluoro-7-methoxyquinolin-4-yl)oxy]phenyl}(imino)methyl-λ^6-sulfanone]
IC50 (ENPP-1 ECD [1]; [7]): 10 to 1000 nM
IC50 (ENPP-1 ECD [1]; [3]): 310 nM

SMILES: COc1ccc2nccc(Oc3ccc(S(C)(=N)=O)cc3)c2n1 (centres unmarked) [Compound 130, imino({4-[(6-methoxy-1,5-naphthyridin-4-yl)oxy]phenyl})methyl-λ^6-sulfanone]
IC50 (ENPP-1 ECD [1]; [3]): 8100 nM

SMILES: CS(=N)(=O)c1ccc(Oc2c(C#N)cnc3cc(F)ccc23)cc1 (centres unmarked) [Compound 131, 7-fluoro-4-{4-[imino(methyl)oxo-λ^6-sulfanyl]phenoxy}quinoline-3-carbonitrile]
IC50 (ENPP-1 ECD [1]; [3]): > 30000 nM
IC50 (ENPP-1 ECD [1]; [4]): > 1000 nM

SMILES: COc1cccc2c(OCc3ccc(S(C)(=N)=O)cc3)ccnc12 (centres unmarked) [Compound 134, imino(4-{[(8-methoxyquinolin-4-yl)oxy]methyl}phenyl)methyl-λ^6-sulfanone]
IC50 (ENPP-1 ECD [1]; [3]): 1100 nM

SMILES: COc1cccc2c(-c3ccc(CCS(C)(=N)=O)cc3)ncnc12 (centres unmarked) [Compound 154, imino({2-[4-(8-methoxyquinazolin-4-yl)phenyl]ethyl})methyl-λ^6-sulfanone]
IC50 (ENPP-1 ECD [1]; [3]): 1800 nM
IC50 (ENPP-1 ECD [1]; [4]): > 1000 nM

SMILES: CS(=N)(=O)Cc1ccc(-c2ccnc3ccccc23)cc1 (centres unmarked) [Compound 155, imino(methyl){[4-(quinolin-4-yl)phenyl]methyl}-λ^6-sulfanone]
IC50 (ENPP-1 ECD [1]; [3]): 14000 nM
IC50 (ENPP-1 ECD [1]; [4]): > 1000 nM

SMILES: COc1cccc2c(N3CCC4(CC3)CCN4S(C)(=N)=O)ncnc12 (centres unmarked) [Compound 214, imino[7-(8-methoxyquinazolin-4-yl)-1,7-diazaspiro[3.5]nonan-1-yl]methyl-λ^6-sulfanone]
Ki (ENPP-1 ECD [2]; [6]): 110 nM

SMILES: COc1cccc2c(N3CCC4(CC3)CCN(S(C)(=N)=O)C4)ncnc12 (centres unmarked) [Compound 215, imino[8-(8-methoxyquinazolin-4-yl)-2,8-diazaspiro[4.5]decan-2-yl]methyl-λ^6-sulfanone]
Ki (ENPP-1 ECD [2]; [6]): 3.8 nM

SMILES: COc1cc2ncnc(N3CCC4(CCN(S(C)(=N)=O)C4)C3)c2cc1OC (centres unmarked) [Compound 216, [7-(6,7-dimethoxyquinazolin-4-yl)-2,7-diazaspiro[4.4]nonan-2-yl](imino)methyl-λ^6-sulfanone]
Ki (ENPP-1 ECD [2]; [6]): 5.5 nM

SMILES: COc1cc2nncc(N3CCC4(CC3)CCN(S(C)(=N)=O)C4)c2cc1Cl (centres unmarked) [Compound 219, [8-(6-chloro-7-methoxycinnolin-4-yl)-2,8-diazaspiro[4.5]decan-2-yl](imino)methyl-λ^6-sulfanone]
Ki (ENPP-1 ECD [2]; [6]): 0.091 nM

SMILES: COc1ccc2c(COc3cccc(S(C)(=N)=O)c3)ccnc2c1 (centres unmarked) [Compound 232, imino({3-[(7-methoxyquinolin-4-yl)methoxy]phenyl})methyl-λ^6-sulfanone]
Ki (ENPP-1 ECD [2]; [6]): 3.3 nM

SMILES: COc1ccc2c(-n3cc4c(n3)CCN(S(C)(=N)=O)C4)ccnc2c1 (centres unmarked) [Compound 233, imino[2-(7-methoxyquinolin-4-yl)-2H,4H,5H,6H,7H-pyrazolo[4,3-c]pyridin-5-yl]methyl-λ^6-sulfanone]
Ki (ENPP-1 ECD [2]; [6]): > 500 nM

SMILES: COc1ccc2c(-n3cc(CCS(C)(=N)=O)cn3)ccnc2c1 (centres unmarked) [Compound 234, imino({2-[1-(7-methoxyquinolin-4-yl)-1H-pyrazol-4-yl]ethyl})methyl-λ^6-sulfanone]
Ki (ENPP-1 ECD [2]; [6]): > 500 nM

SMILES: COc1ccc2c(OC3CCN(S(C)(=N)=O)CC3)ccnc2c1 (centres unmarked) [Compound 235, imino({4-[(7-methoxyquinolin-4-yl)oxy]piperidin-1-yl})methyl-λ^6-sulfanone]
Ki (ENPP-1 ECD [2]; [6]): 8 nM

SMILES: COc1ccc2c(O[C@H]3CC[C@H](S(C)(=N)=O)CC3)ccnc2c1 (some centres unmarked) [Compound 243, imino(methyl)[(1r,4r)-4-[(7-methoxyquinolin-4-yl)oxy]cyclohexyl]-λ^6-sulfanone]
Ki (ENPP-1 ECD [2]; [6]): 4.3 nM

SMILES: COc1cccc2c(N3CC=C(CS(C)(=N)=O)CC3)ncnc12 (centres unmarked) [Compound 246, imino({[1-(8-methoxyquinazolin-4-yl)-1,2,3,6-tetrahydropyridin-4-yl]methyl})methyl-λ^6-sulfanone]
Ki (ENPP-1 ECD [2]; [6]): 19 nM
